Test results from patent publication US8252843B2, “Compounds for the treatment of AIDS and other viral diseases” (Novaremed Limited, priority 2004, dated 2012).

Columns and labels:
PHA-activated PBMCs [1] = assay: Example 9: [3H]-thymidine proliferation of PHA-activated PBMCs, compound in PBS; assay type: cell-based, human; settings: 50 μg/ml, 7 days, PHA 10 μg/ml
Procedure: (§1) Human PBMCs were prepared from a blood bank and plated out at a concentration of 10^5 cells per well in a standard 96-well plate. PHA was added to each well at a concentration of 10 μg/ml together with AV 61S or PPG-7 (both in PBS) at concentrations of 50 μg/ml, 1 μg/ml, 100 ng/ml, 1 ng/ml and 100 pg/ml respectively for AV 61S and 50 μg/ml, 1 μg/ml and 10 ng/ml for PPG-7. The cells were then incubated for 7 days. [3H]-thymidine (NET-027 Thymidine [methyl-3H] from NEN 6.7 Ci/mmol Batch 3106446) was added to each well 48 hours after plating at a concentration of 1 mCi/well; a second dose was added to each well 18 hours before the end of the experiment. The cells were then harvested and counted for 1 min./sample.
The controls were medium alone and CsA (1 mg in 1 ml ethanol).

PHA-activated PBMCs [2] = assay: Example 10: [3H]-thymidine proliferation of PHA-activated PBMCs, compound diluted in DMSO; assay type: cell-based, human; settings: for inhibition relative to the controls: DMSO 0.25%; for inhibitory effect on PBMCs (summary of Examples 9 and 10): 100 and 50 μg/ml (61S), 100, 50 and 25 (74S)
Procedure: as §1
Example 9 was repeated using separately compounds AV 61S, AV 61R and AV 74S and AV 74R. In each case the test compound was diluted in DMSO to a final concentration of 0.25%. A single dose of [3H]-thymidine (NET-027 Thymidine [methyl-3H] from NEN 6.7 Ci/mmol Batch 3106446) was added to each well 18 hours before the end of the experiment.

PBMC cells = assay: Toxicity against PBMC cells by Alamar Blue reagent; settings: 24 h and 48 h incubation
Procedure: Human PBMC cells were obtained from a blood bank and plated out on a standard 96-well plate at a concentration of 10^5 cells/well. PHA (10 μg/ml) and AV 61S (or AV 74S) at different dilutions in DMSO of 100 μg/ml, 50 μg/ml, 25 μg/ml, 10 μg/ml and 1 μg/ml were added simultaneously to each well. The cells were incubated for 24 hours.
After 24 hours, Alamar Blue reagent was added up to 10% of the total well volume.
The controls were medium only and CsA (1 mg/1 ml EtOH).
The contents of each well were then assayed 1 hour, 3 hours and 6 hours after addition of Alamar Blue by fluorescence in the manner known to those skilled in the art to determine the viability of the PBMCs.

Substance	inhibition relative to the controls (PHA-activated PBMCs [1])	inhibition relative to the controls (PHA-activated PBMCs [2]; 50 μg/ml)	inhibition relative to the controls (PHA-activated PBMCs [2]; 100 μg/ml)	inhibitory effect on PBMCs (summary of Examples 9 and 10) (PHA-activated PBMCs [2])	toxicity (Alamar Blue dyeing) (PBMC cells; 100 μg/ml)	toxicity (Alamar Blue dyeing) (PBMC cells; all concentrations 1-100 μg/ml except AV 74S at 100 μg/ml)
(S) 2-N (3-O-polypropyleneglycol)propylbenzene)-3-(4-hydroxyphenyl)propylamide [AV 61S]	60%	about 49%	about 97%	inhibitory effect	–	–
(S) 2-N (3-O-(polypropyleneglycol)-1-propyl-4-hydroxybenzene)-3-phenylpropylamide [AV 74S]	–	81%	100%	inhibitory effect	same activity and toxicity pattern as Cyclosporine (CsA)	non-toxic effect
